Measurements as given in patent US9376418B2, “Substituted pyridine spleen tyrosine kinase (SYK) inhibitors” (Merck Sharp & Dohme Corp., priority 2012, dated 2016).

The compounds below were run against T1, recombinant human GST-SYK (Homo sapiens, UniProt P43405) (assay: Homogeneous Time-Resolved Fluorescence (HTRF) assay for the recombinant human Syk enzyme). Details: HTRF assay, recombinant human GST-SYK; IC50 given as class symbols; read-out: rhSYK Activity.
T1 construct: purchased Carna Biosciences 08-176
Format: biochemical
How it was run: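 Enzyme […], pH 7.5 Tris/tween/DTT buffer; 10 min preincubation with compound, RT. Start: 250 nM biotin-peptide, 25 μM ATP, 5 mM Mg; 45′ RT. Stop/detect: 40 mM EDTA, Eu-anti-pTyr, SA-APC; read 30 min later.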

Compound	IC50 [nM]
Cc1cc(Nc2nccc(C(F)(F)F)n2)cc(-c2ccnc(C(C)(C)O)c2)c1 [Example 9.61, 2-[4-(3-methyl-5-{[4-(trifluoromethyl)pyrimidin-2-yl]amino}phenyl)pyridin-2-yl]propan-2-ol]	< 100
Cc1cc(Nc2nccc(C(F)(F)F)n2)cc(-c2ccnc(C3(O)COC(C)(C)OC3)c2)c1 [Example 9.62, 2,2-dimethyl-5-[4-(3-methyl-5-{[4-(trifluoromethyl)pyrimidin-2-yl]amino}phenyl)pyridin-2-yl]-1,3-dioxan-5-ol]	100 to 1000
Cc1cc(Nc2nccc(C(F)(F)F)n2)cc(-c2ccnc(C3(O)CCC4(CC3)OCCO4)c2)c1 [Example 9.63, 8-[4-(3-methyl-5-{[4-(trifluoromethyl)pyrimidin-2-yl]amino}phenyl)pyridin-2-yl]-1,4-dioxaspiro[4.5]decan-8-ol]	< 100
Cc1cc(Nc2nccc(C(F)(F)F)n2)cc(-c2ccnc(C(C)(O)CO)c2)c1 (stereo not shown) [Example 9.64, 2-[4-(3-methyl-5-{[4-(trifluoromethyl)pyrimidin-2-yl]amino}phenyl)pyridine-2-yl]propane-1,2-diol]	< 100
Cc1cc(Nc2nccc(C(F)(F)F)n2)cc(-c2ccnc(C(O)(CO)CO)c2)c1 [Example 9.65, 2-[4-(3-methyl-5-{[4-(trifluoromethyl)pyrimidin-2-yl]amino}phenyl)pyridine-2-yl]propane-1,2,3-triol]	< 100
Cc1cc(Nc2nccc(C(F)(F)F)n2)cc(-c2cncc(C3(O)CCCC(C(=O)O)C3)c2)c1 (stereo not shown) [Example 9.66, 3-hydroxy-3-[5-(3-methyl-5-{[4-(trifluoromethyl)pyrimidin-2-yl]amino}phenyl)pyridin-3-yl]cyclohexanecarboxylic acid]	< 100
Cc1cc(Nc2nccc(C(F)(F)F)n2)cc(-c2cncc(C3(O)CCC(C(=O)O)C3)c2)c1 (stereo not shown) [Example 9.67, 3-hydroxy-3-[5-(3-methyl-5-{[4-(trifluoromethyl)pyrimidin-2-yl]amino}phenyl)pyridin-3-yl]cyclopentanecarboxylic acid]	< 100
Cc1cc(Nc2nccc(C(F)(F)F)n2)cc(-c2cncc(C(C)(O)CO)c2)c1 (stereo not shown) [Example 9.68, 2-[5-(3-methyl-5-{[4-(trifluoromethyl)pyrimidin-2-yl]amino}phenyl)pyridin-3-yl]propane-1,2-diol]	< 100
Cc1cc(Nc2nccc(C(F)(F)F)n2)cc(-c2cncc([C@]3(O)CC[C@@H](C(=O)O)CC3)c2)c1 [Example 9.69, cis-4-hydroxy-4-[5-(3-methyl-5-{[4-(trifluoromethyl)pyrimidin-2-yl]amino}phenyl)pyridin-3-yl]cyclohexanecarboxylic acid]	< 100
Cc1cc(Nc2nccc(C(F)(F)F)n2)cc(-c2cncc([C@]3(O)CC[C@H](C(=O)O)CC3)c2)c1 [Example 9.70, trans-4-hydroxy-4-[5-(3-methyl-5-{[4-(trifluoromethyl)pyrimidin-2-yl]amino}phenyl)pyridin-3-yl]cyclohexanecarboxylic acid]	< 100
Cc1cc(Nc2nccc(C(F)(F)F)n2)cc(-c2cncc(C(C)(C)O)c2)c1 [Example 9.71, 2-[5-(3-methyl-5-{[4-(trifluoromethyl)pyrimidin-2-yl]amino}phenyl)pyridin-3-yl]propan-2-ol]	< 100
CC(=O)C(C)(O)c1cncc(-c2cc(C)cc(Nc3nccc(C(F)(F)F)n3)c2)c1 (stereo not shown) [Example 9.72, 3-hydroxy-3-[5-(3-methyl-5-{[4-(trifluoromethyl)pyrimidin-2-yl]amino}phenyl)pyridin-3-yl]butan-2-one]	< 100
Cc1cc(Nc2nccc(C(F)(F)F)n2)cc(-c2cncc(C(C)(O)C(C)O)c2)c1 (stereo not shown) [Example 9.73, 2-[5-(3-methyl-5-{[4-(trifluoromethyl)pyrimidin-2-yl]amino}phenyl)pyridin-3-yl]butane-2,3-diol]	< 100
Cc1cc(Nc2nccc(C3CC3)n2)cc(-c2cncc(C(O)(CO)CO)c2)c1 [Example 9.74, 2-(5-{3-[(4-cyclopropylpyrimidin-2-yl)amino]-5-methylphenyl}pyridin-3-yl)propane-1,2,3-triol]	1000 to 10000
Cc1cc(Nc2nccc(C)n2)cc(-c2cncc(C(O)(CO)CO)c2)c1 [Example 9.75, 2-(5-{3-methyl-5-[(4-methylpyrimidin-2-yl)amino]phenyl}pyridin-3-yl)propane-1,2,3-triol]	100 to 1000
Cc1cc(Nc2nccc(C(F)(F)F)n2)cc(-c2cncc(C3(O)CCC(O)CC3)c2)c1 (stereo not shown) [Example 9.76, 1-[5-(3-methyl-5-{[4-(trifluoromethyl)pyrimidin-2-yl]amino}phenyl)pyridin-3-yl]cyclohexane-1,4-diol]	< 100
CCOC(=O)C1CCCC(O)(c2cncc(-c3cc(C)cc(Nc4nccc(C(F)(F)F)n4)c3)c2)C1 (stereo not shown) [Example 9.77, ethyl 3-hydroxy-3-[5-(3-methyl-5-{[4-(trifluoromethyl)pyrimidin-2-yl]amino}phenyl)pyridin-3-yl]cyclohexanecarboxylate]	100 to 1000
Cc1cc(Nc2nccc(C(F)(F)F)n2)cc(-c2cncc(C3(O)COC(C)(C)OC3)c2)c1 [Example 9.78, 2,2-dimethyl-5-[5-(3-methyl-5-{[4-(trifluoromethyl)pyrimidin-2-yl]amino}phenyl)pyridin-3-yl]-1,3-dioxan-5-ol]	100 to 1000
Cc1cc(Nc2nccc(C(F)(F)F)n2)cc(-c2cncc(C3(O)COC3)c2)c1 [Example 9.79, 3-[5-(3-methyl-5-{[4-(trifluoromethyl)pyrimidin-2-yl]amino}phenyl)pyridin-3-yl]oxetan-3-ol]	< 100
Cc1cc(Nc2nccc(C(F)(F)F)n2)cc(-c2cncc(C(O)(CO)CO)c2)c1 [Example 9.80, 2-[5-(3-methyl-5-{[4-(trifluoromethyl)pyrimidin-2-yl]amino}phenyl)pyridin-3-yl]propane-1,2,3-triol]	< 100
Cc1cc(Nc2nccc(C(F)(F)F)n2)cc(-c2cncc(C(C)(O)C(F)(F)F)c2)c1 (stereo not shown) [Example 9.81, 1,1,1-trifluoro-2-[5-(3-methyl-5-{[4-(trifluoromethyl)pyrimidin-2-yl]amino}phenyl)pyridin-3-yl]propan-2-ol]	< 100
Cc1cc(Nc2nccc(C(F)(F)F)n2)cc(-c2cncc(C3(O)CCN(C(N)=O)CC3)c2)c1 [Example 10.1, 4-Hydroxy-4-[5-(3-methyl-5-{[4-(trifluoromethyl)pyrimidin-2-yl]amino}phenyl)pyridin-3-yl]piperidine-1-carboxamide]	< 100
Cc1cc(Nc2nccc(C(F)(F)F)n2)cc(-c2cncc(C3(O)CCN(C(N)=O)C3)c2)c1 (stereo not shown) [Example 10.2, 3-hydroxy-3-[5-(3-methyl-5-{[4-(trifluoromethyl)pyrimidin-2-yl]amino}phenyl)pyridin-3-yl]pyrrolidine-1-carboxamide]	< 100
Cc1cc(Nc2nccc(C(F)(F)F)n2)cc(-c2ccc(C3(O)CCN(C(N)=O)CC3)nc2)c1 [Example 10.3, 4-hydroxy-4-[5-(3-methyl-5-{[4-(trifluoromethyl)pyrimidin-2-yl]amino}phenyl)pyridin-2-yl]piperidine-1-carboxamide]	< 100
Cc1cc(Nc2nccc(C(F)(F)F)n2)cc(-c2ccc(C3(O)CCN(C(N)=O)C3)nc2)c1 (stereo not shown) [Example 10.4, 3-hydroxy-3-[5-(3-methyl-5-{[4-(trifluoromethyl)pyrimidin-2-yl]amino}phenyl)pyridin-2-yl]pyrrolidine-1-carboxamide]	< 100

Other lines, results leading:

IC50 [nM]	Compound
< 100	Cc1cc(Nc2nccc(C(F)(F)F)n2)cc(-c2ccc(C3(O)CCNC(=O)CC3)nc2)c1 (stereo not shown) [Example 11.1, 5-Hydroxy-5-[5-(3-methyl-5-{[4-(trifluoromethyl)pyrimidin-2-yl]amino}phenyl)pyridin-2-yl]azepan-2-one]
100 to 1000	Cc1cc(Nc2nccc(C(F)(F)F)n2)cc(-c2ccc(Oc3ccc(C(N)=O)cc3)nc2)c1 [Example 12.3, 4-{[5-(3-Methyl-5-{[4-(trifluoromethyl)pyrimidin-2-yl]amino}phenyl)pyridin-2-yl]oxy}benzamide]
< 100	Cc1cc(Nc2nccc(C(F)(F)F)n2)cc(-c2ccc(C(C)(O)c3ccc(C(N)=O)cc3)nc2)c1 (stereo not shown) [Example 12.4, 4-{1-hydroxy-1-[5-(3-methyl-5-{[4-(trifluoromethyl)pyrimidin-2-yl]amino}phenyl)pyridin-2-yl]ethyl}benzamide]
< 100	Cc1cc(Nc2nccc(C(F)(F)F)n2)cc(-c2ccc(C(=O)N3CCNC(=O)C3C)nc2)c1 (stereo not shown) [Example 12.5, 3-methyl-4-{[5-(3-methyl-5-{[4-(trifluoromethyl)pyrimidin-2-yl]amino}phenyl)pyridin-2-yl]carbonyl}piperazin-2-one]
< 100	Cc1cc(Nc2nccc(C(F)(F)F)n2)cc(-c2ccc(C(N)=O)nc2)c1 [Example 12.6, 5-(3-methyl-5-{[4-(trifluoromethyl)pyrimidin-2-yl]amino}phenyl)pyridine-2-carboxamide]
< 100	Cc1cc(Nc2nccc(C(F)(F)F)n2)cc(-c2ccc(NCC(=O)NCC(N)=O)nc2)c1 [Example 12.7, N-[5-(3-methyl-5-{[4-(trifluoromethyl)pyrimidin-2-yl]amino}phenyl)pyridin-2-yl]glycylglycinamide]
< 100	Cc1cc(Nc2nccc(C(F)(F)F)n2)cc(-c2ccc(NC3(C(N)=O)CC3)nc2)c1 [Example 12.8, 1-{[5-(3-methyl-5-{[4-(trifluoromethyl)pyrimidin-2-yl]amino}phenyl)pyridin-2-yl]amino}cyclopropanecarboxamide]
< 100	Cc1cc(Nc2nccc(C(F)(F)F)n2)cc(-c2ccc(N3CC[C@H]3C(N)=O)nc2)c1 [Example 12.9, (2S)-1-[5-(3-methyl-5-{[4-(trifluoromethyl)pyrimidin-2-yl]amino}phenyl)pyridin-2-yl]azetidine-2-carboxamide]
< 100	Cc1cc(Nc2nccc(C(F)(F)F)n2)cc(-c2ccc(CCC#N)nc2)c1 [Example 13.1, 3-[5-(3-Methyl-5-{[4-(trifluoromethyl)pyrimidin-2-yl]amino}phenyl)pyridin-2-yl]propanenitrile]
